# Assay results published in patent publication US20150011466A1, “APJ Receptor Compounds” (priority 2012, published 2015).
# Like-named read-outs stand apart in the source and are kept apart here. Where a SMILES comes first, the peptide text is derived from it. [ ]: non-standard residue; d: D form. The star is where a group is joined. Palmitoyl = CCCCCCCCCCCCCCCC(=O)*; Aib = CC(C)(N)C(=O)O
# Columns and labels:
# [1] = target: T1, APJ receptor (Homo sapiens, UniProt P35414); test: HTRF cAMP assay, inhibition of NKH477 stimulated cAMP in Human TRex cells expressing APJ upon doxycycline induction (APJ-hTREX); format: cell-based; conditions: for percent intrinsic activity at 0.3 µM: read-out: % IA (@ 300 nM); for Ranking: class combining EC50 and % histamine
# T1 construct: expressed in transfected cells; host or cells: Human TRex cells (doxycycline-inducible)
# T1 sequence (P35414 1-380): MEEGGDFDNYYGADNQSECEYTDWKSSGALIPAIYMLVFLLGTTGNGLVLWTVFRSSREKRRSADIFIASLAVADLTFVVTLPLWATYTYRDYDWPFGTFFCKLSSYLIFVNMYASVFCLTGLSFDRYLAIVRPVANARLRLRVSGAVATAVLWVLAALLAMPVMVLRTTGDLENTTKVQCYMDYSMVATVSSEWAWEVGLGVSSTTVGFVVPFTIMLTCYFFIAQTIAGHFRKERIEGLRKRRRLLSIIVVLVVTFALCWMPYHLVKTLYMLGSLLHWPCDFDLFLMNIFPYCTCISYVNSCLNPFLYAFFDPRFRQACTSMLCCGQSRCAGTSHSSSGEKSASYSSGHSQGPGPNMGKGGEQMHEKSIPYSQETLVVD
# Procedure, shortened: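 Cells stimulated with NKH477 and cAMP measured by HTRF competitive immunoassay (cryptate anti-cAMP antibody, d2-labeled cAMP). APJ-hTREX cells induced with […] doxycycline and seeded overnight at 40 k/well.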
# [2] = Histimine (% vs. 48/40)
SMILES,percent intrinsic activity at 0.3 µM [1] [%],Histimine (% vs. 48/40) [2] [%],"EC50 ([1]; inhibition of NKH477 stimulated cAMP, APJ-hTREX cells, read-out: APJ-hTREX EC50) [nM]",Ranking [1],EC50 [1] [nM]
"CCCCCCCCCCCCCCCC(=O)N[C@H](C(=O)N[C@H](C(=O)N[C@@H](Cc1ccccc1)C(=O)N[C@@H](CCCNC(=N)N)C(=O)N[C@@H](CO)C(=O)N[C@@H](CO)C(=O)N[C@@H](CCC(=O)O)C(=O)N[C@H](CCCCN)C(=O)N[C@@H](CCCNC(=N)N)C(=O)N[C@@H](CCCNC(=N)N)C(=O)N[C@@H](CO)C(=O)NC(C)(C)C(=O)N[C@@H](CC(=O)O)C(=O)N[C@H](C(=O)N[C@@H](Cc1ccccc1)C(=O)N[C@H](C(N)=O)[C@@H](C)CC)[C@@H](C)CC)C(C)C)[C@@H](C)O [Compound 64, TVFRSSEkRRS(Aib)DIFI] (Palmitoyl-TVFRSSE[dK]RRS[Aib]DIFI-NH2)",60,105,,,
"CCCCCCCCCCCCCCCC(=O)N[C@H](C(=O)N[C@H](C(=O)N[C@@H](Cc1ccccc1)C(=O)N[C@@H](CCCNC(=N)N)C(=O)N[C@@H](CO)C(=O)N[C@@H](CO)C(=O)N[C@@H](CCC(=O)O)C(=O)N[C@H](CCCCN)C(=O)N[C@@H](CCCNC(=N)N)C(=O)N[C@@H](CCCNC(=N)N)C(=O)N[C@@H](CO)C(=O)N[C@@H](C)C(=O)N[C@@H](CC(=O)O)C(=O)N[C@H](C(=O)N[C@@H](Cc1ccccc1)C(=O)NC(C)(C)C(N)=O)[C@@H](C)CC)C(C)C)[C@@H](C)O [Compound 67, TVFRSSEkRRSADIF(Aib)] (Palmitoyl-TVFRSSE[dK]RRSADIF[Aib]-NH2)",46,50,,,
CCCCCCCCCCCCCCCC(=O)N[C@H](C(=O)NCC(=O)N[C@@H](Cc1ccccc1)C(=O)N[C@@H](CCCNC(=N)N)C(=O)N[C@@H](CO)C(=O)N[C@@H](CO)C(=O)N[C@@H](CCC(=O)O)C(=O)N[C@H](CCCCN)C(=O)N[C@@H](CCCNC(=N)N)C(=O)N[C@@H](CCCNC(=N)N)C(=O)N[C@@H](CO)C(=O)N[C@@H](C)C(=O)N[C@@H](CC(=O)O)C(=O)N[C@H](C(=O)N[C@@H](Cc1ccccc1)C(=O)N[C@H](C(N)=O)[C@@H](C)CC)[C@@H](C)CC)[C@@H](C)O [Compound 69] (Palmitoyl-TGFRSSE[dK]RRSADIFI-NH2; C-terminus assumed),77,50,,*** (EC50<100 nM and % histamine>35%),38.1
CCCCCCCCCCCCCCCC(=O)N[C@H](C(=O)N[C@H](C(=O)N[C@@H](Cc1ccccc1)C(=O)NCC(=O)N[C@@H](CO)C(=O)N[C@@H](CO)C(=O)N[C@@H](CCC(=O)O)C(=O)N[C@H](CCCCN)C(=O)N[C@@H](CCCNC(=N)N)C(=O)N[C@@H](CCCNC(=N)N)C(=O)N[C@@H](CO)C(=O)N[C@@H](C)C(=O)N[C@@H](CC(=O)O)C(=O)N[C@H](C(=O)N[C@@H](Cc1ccccc1)C(=O)N[C@H](C(N)=O)[C@@H](C)CC)[C@@H](C)CC)C(C)C)[C@@H](C)O [Compound 71] (Palmitoyl-TVFGSSE[dK]RRSADIFI-NH2; C-terminus assumed),65,6,,**** (EC50 101-500 nM and % histamine<35%),111
CCCCCCCCCCCCCCCC(=O)N[C@H](C(=O)N[C@H](C(=O)N[C@@H](Cc1ccccc1)C(=O)N[C@@H](CCCNC(=N)N)C(=O)NCC(=O)N[C@@H](CO)C(=O)N[C@@H](CCC(=O)O)C(=O)N[C@H](CCCCN)C(=O)N[C@@H](CCCNC(=N)N)C(=O)N[C@@H](CCCNC(=N)N)C(=O)N[C@@H](CO)C(=O)N[C@@H](C)C(=O)N[C@@H](CC(=O)O)C(=O)N[C@H](C(=O)N[C@@H](Cc1ccccc1)C(=O)N[C@H](C(N)=O)[C@@H](C)CC)[C@@H](C)CC)C(C)C)[C@@H](C)O [Compound 72] (Palmitoyl-TVFRGSE[dK]RRSADIFI-NH2; C-terminus assumed),75,44,,** (EC50 101-500 nM and % histamine>35%),134
CCCCCCCCCCCCCCCC(=O)N[C@H](C(=O)N[C@H](C(=O)N[C@@H](Cc1ccccc1)C(=O)N[C@@H](CCCNC(=N)N)C(=O)N[C@@H](CO)C(=O)N[C@@H](CO)C(=O)N[C@@H](CCC(=O)O)C(=O)N[C@H](CCCCN)C(=O)N[C@@H](CCCNC(=N)N)C(=O)N[C@@H](CCCNC(=N)N)C(=O)N[C@@H](CO)C(=O)N[C@@H](C)C(=O)N[C@@H](CC(=O)O)C(=O)N[C@H](C(=O)N[C@@H](Cc1ccccc1)C(=O)NCC(N)=O)[C@@H](C)CC)C(C)C)[C@@H](C)O [Compound 80] (Palmitoyl-TVFRSSE[dK]RRSADIFG-NH2),35,52,,,

# Second part, led by results:
percent intrinsic activity at 0.3 µM [1] [%],Histimine (% vs. 48/40) [2] [%],"EC50 ([1]; inhibition of NKH477 stimulated cAMP, APJ-hTREX cells, read-out: APJ-hTREX EC50) [nM]",SMILES,Ranking [1],EC50 [1] [nM]
45,100,,"CCCCCCCCCCCCCCCC(=O)N[C@H](C(=O)N[C@H](C(=O)N[C@@H](Cc1ccccc1)C(=O)N[C@@H](CCCNC(=N)N)C(=O)N[C@@H](CO)C(=O)N[C@@H](CO)C(=O)N[C@@H](CCC(=O)O)C(=O)N[C@H](CCCCN)C(=O)N[C@@H](CCCNC(=N)N)C(=O)N[C@@H](CCCNC(=N)N)C(=O)N[C@@H](CO)C(=O)N[C@@H](C)C(=O)NC(C)(C)C(=O)N[C@H](C(=O)N[C@@H](Cc1ccccc1)C(=O)N[C@H](C(N)=O)[C@@H](C)CC)[C@@H](C)CC)C(C)C)[C@@H](C)O [Compound 65, TVFRSSEkRRSA(Aib)IFI] (Palmitoyl-TVFRSSE[dK]RRSA[Aib]IFI-NH2)",,
47,19,173,CCCCCCCCCCCCCCCC(=O)N[C@H](C(=O)N[C@H](C(=O)N[C@@H](Cc1ccccc1)C(=O)N[C@@H](CCCNC(=N)N)C(=O)N[C@@H](CO)C(=O)N[C@@H](CO)C(=O)N[C@@H](CCC(=O)O)C(=O)N[C@H](CCCCN)C(=O)N[C@@H](CCCNC(=N)N)C(=O)N[C@@H](CCCNC(=N)N)C(=O)N[C@@H](CO)C(=O)N[C@@H](C)C(=O)N[C@@H](CC(=O)O)C(=O)N[C@H](C(=O)NC(C)(C)C(=O)N[C@H](C(N)=O)[C@@H](C)CC)[C@@H](C)CC)C(C)C)[C@@H](C)O [Compound 66] (Palmitoyl-TVFRSSE[dK]RRSADI[Aib]I-NH2; C-terminus assumed),**** (EC50 101-500 nM and % histamine<35%),
46,25,,CCCCCCCCCCCCCCCC(=O)N[C@H](C(=O)N[C@H](C(=O)N[C@@H](Cc1ccccc1)C(=O)N[C@@H](CCCNC(=N)N)C(=O)N[C@@H](CO)C(=O)N[C@@H](CO)C(=O)N[C@@H](CCC(=O)O)C(=O)N[C@H](CCCCN)C(=O)N[C@@H](CCCNC(=N)N)C(=O)NCC(=O)N[C@@H](CO)C(=O)N[C@@H](C)C(=O)N[C@@H](CC(=O)O)C(=O)N[C@H](C(=O)N[C@@H](Cc1ccccc1)C(=O)N[C@H](C(N)=O)[C@@H](C)CC)[C@@H](C)CC)C(C)C)[C@@H](C)O [Compound 76] (Palmitoyl-TVFRSSE[dK]RGSADIFI-NH2),,
64,53,,CCCCCCCCCCCCCCCC(=O)N[C@H](C(=O)N[C@H](C(=O)N[C@@H](Cc1ccccc1)C(=O)N[C@@H](CCCNC(=N)N)C(=O)N[C@@H](CO)C(=O)N[C@@H](CO)C(=O)N[C@@H](CCC(=O)O)C(=O)N[C@H](CCCCN)C(=O)N[C@@H](CCCNC(=N)N)C(=O)N[C@@H](CCCNC(=N)N)C(=O)NCC(=O)N[C@@H](C)C(=O)N[C@@H](CC(=O)O)C(=O)N[C@H](C(=O)N[C@@H](Cc1ccccc1)C(=O)N[C@H](C(N)=O)[C@@H](C)CC)[C@@H](C)CC)C(C)C)[C@@H](C)O [Compound 77] (Palmitoyl-TVFRSSE[dK]RRGADIFI-NH2),,
60,62,,CCCCCCCCCCCCCCCC(=O)N[C@H](C(=O)N[C@H](C(=O)N[C@@H](Cc1ccccc1)C(=O)N[C@@H](CCCNC(=N)N)C(=O)N[C@@H](CO)C(=O)N[C@@H](CO)C(=O)N[C@@H](CCC(=O)O)C(=O)N[C@H](CCCCN)C(=O)N[C@@H](CCCNC(=N)N)C(=O)N[C@@H](CCCNC(=N)N)C(=O)N[C@@H](CO)C(=O)N[C@@H](C)C(=O)NCC(=O)N[C@H](C(=O)N[C@@H](Cc1ccccc1)C(=O)N[C@H](C(N)=O)[C@@H](C)CC)[C@@H](C)CC)C(C)C)[C@@H](C)O [Compound 78] (Palmitoyl-TVFRSSE[dK]RRSAGIFI-NH2),,
39,43,,CCCCCCCCCCCCCCCC(=O)N[C@H](C(=O)N[C@H](C(=O)N[C@@H](Cc1ccccc1)C(=O)N[C@@H](CCCNC(=N)N)C(=O)N[C@@H](CO)C(=O)N[C@@H](CO)C(=O)N[C@@H](CCC(=O)O)C(=O)N[C@H](CCCCN)C(=O)N[C@@H](CCCNC(=N)N)C(=O)N[C@@H](CCCNC(=N)N)C(=O)N[C@@H](CO)C(=O)N[C@@H](C)C(=O)N[C@@H](CC(=O)O)C(=O)N[C@H](C(=O)NCC(=O)N[C@H](C(N)=O)[C@@H](C)CC)[C@@H](C)CC)C(C)C)[C@@H](C)O [Compound 79] (Palmitoyl-TVFRSSE[dK]RRSADIGI-NH2),,
